Data on 21 compounds can be found in PubChem BioAssay (NCI).

Test systems include K-562 leukemia; LOX IMVI melanoma; MOLT-4 leukemia; OVCAR-4 ovarian; OVCAR-5 ovarian; SN12C renal; SR leukemia; UACC-62 melanoma; KM20L2 colon; M19-MEL melanoma.
Common to all, as to test: DTP human tumour cell line panel, 48 h

Where “and” joins values, the source holds several entries; their conditions need not be identical. Identical values can stand only once.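 Protocol summary: plate cells (96-well), add compound at 5 concentrations, incubate 48 h, interpolate endpoints linearly. GI50: concentration for 50% inhibition of growth. The concentration for full growth arrest is given as TGI.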

As usually defined, the TGI is the concentration at which net growth stops. Lower therefore signals more potent growth arrest. Turning to `O=C(/C=C/c1ccc([N+](=O)[O-])cc1)N1CCN(CCOC(c2ccc(F)cc2)c2ccc(F)cc2)CC1`, the TGI with K-562 leukemia was more than 100 µM; with LOX IMVI melanoma, more than 100 µM; in the test on MOLT-4 leukemia it was 19 µM; in the test with OVCAR-4 ovarian, more than 100 µM; in the test with OVCAR-5 ovarian, more than 100 µM; in the test with SN12C renal it was more than 100 µM. The TGI with SR leukemia was 40.5 µM; in the test with UACC-62 melanoma it was more than 100 µM.
Regarding `O=C1Nc2cccc(Cl)c2/C1=C\c1cccnc1`, the TGI in the test on K-562 leukemia is 36.5 µM; in the test with LOX IMVI melanoma, more than 100 µM; in the test on MOLT-4 leukemia, 10.2 µM; in the test on OVCAR-4 ovarian it was 31.7 µM; with OVCAR-5 ovarian, 16.1 µM; with SN12C renal it was 20.5 µM.
For `Cc1csc2nc(-c3cccc([N+](=O)[O-])c3)c(/C=N/N=C(N)N)n12`, the TGI with OVCAR-4 ovarian was 3.19 µM; in the test on OVCAR-5 ovarian, 2.98 µM; in the test with SN12C renal, 3.11 µM; with UACC-62 melanoma, 2.8 µM.
For the compound `COC(=O)c1c(O)ccc2c1c1c(n2CCc2ccc(OC)c(OC)c2)C(=O)c2ccccc2C1=O`, the TGI in the test with K-562 leukemia was more than 100 µM; with MOLT-4 leukemia it was 65.8 µM; in the test with OVCAR-4 ovarian, 35.6 µM; in the test with OVCAR-5 ovarian, 34.1 µM; with SN12C renal, 50.9 µM; in the test with SR leukemia it was 51.3 µM. Moreover, the TGI in the test on UACC-62 melanoma was found to be 32.9 µM.
For the compound `Brc1ccc(-c2[nH]c3ccccc3c2/C=N\Nc2ccc(-c3nc4ccccc4[nH]3)cc2)cc1`, the TGI in the test on K-562 leukemia is more than 39.2 µM; in the test with LOX IMVI melanoma it was more than 100 µM; with MOLT-4 leukemia it was 22.1 µM; with OVCAR-4 ovarian, more than 100 µM; in the test with OVCAR-5 ovarian, more than 67.1 µM; in the test on SN12C renal, more than 100 µM. This compound returned a TGI in the test on UACC-62 melanoma of more than 100 µM.
Take `O=C1OC(c2ccc(O)cc2)(c2ccc(O)cc2)c2ccc(Cl)c3cccc1c23` (tested in a mixture with another compound): the TGI with K-562 leukemia is more than 75 µM; in the test with LOX IMVI melanoma it was 20.8 µM; in the test on OVCAR-4 ovarian it was 0.325 µM; with OVCAR-5 ovarian it was 20.8 µM; in the test with SN12C renal, 27.7 µM; in the test on SR leukemia, 28.4 µM. In addition, the TGI with UACC-62 melanoma amounted to 21.9 µM.
Usually GI50 stands for the concentration at which growth is held to half of that of the control. Consider `Cc1ncc(C(=O)Nc2ccc(CN3CCN(C)CC3)c(C(F)(F)F)c2)cc1C#Cc1cnc(N)c2ccc(C#N)cc12`, for which the GI50 is 0.0559 µM in the test with MOLT-4 leukemia, less than 0.0124 µM with SN12C renal, 0.0607 µM in the test with SR leukemia and less than 0.0108 µM in the test on UACC-62 melanoma. Further, the TGI was more than 100 µM in the test on MOLT-4 leukemia, 5.01 µM in the test on SN12C renal, more than 100 µM in the test with SR leukemia and 0.0717 µM in the test with UACC-62 melanoma.
Take `COc1cc(/C=N/NC(=O)c2c(Cl)c(Cl)c(Cl)c(Cl)c2-c2nc3ccc(C(=O)c4ccccc4)cc3[nH]2)ccc1O`: the TGI was more than 100 µM with K-562 leukemia; more than 100 µM with LOX IMVI melanoma; 64.1 µM in the test with MOLT-4 leukemia; more than 100 µM in the test on OVCAR-4 ovarian; more than 100 µM with OVCAR-5 ovarian; more than 100 µM in the test with SN12C renal. This compound also came in with a TGI in the test with SR leukemia of 54.4 µM.
As to `O=C(O)c1cc2ccccc2c(N=Nc2ccc(S(=O)(=O)Nc3ccccn3)cc2)c1O`, the TGI in the test on K-562 leukemia, in the test on MOLT-4 leukemia, in the test with OVCAR-4 ovarian, in the test with OVCAR-5 ovarian, in the test with SN12C renal and in the test with SR leukemia was more than 100 µM in each case. Also, in the test on UACC-62 melanoma, the TGI is more than 100 µM.
In the case of `O=S(=O)(c1ccccc1)C1CC(c2nc3ccccc3[nH]2)=NO1` (stereo not drawn), the TGI in the test with K-562 leukemia, with LOX IMVI melanoma, in the test with MOLT-4 leukemia, in the test on OVCAR-4 ovarian, with OVCAR-5 ovarian and in the test with SN12C renal was more than 100 µM each time. The TGI in the test with SR leukemia and in the test with UACC-62 melanoma was more than 100 µM in each case.
Take `CCCCCCCCCCCCc1ccc(S(=O)(=O)O)cc1.[Cu+2]`: the TGI in the test with K-562 leukemia, in the test on LOX IMVI melanoma, with MOLT-4 leukemia, in the test with OVCAR-4 ovarian, with OVCAR-5 ovarian and with SN12C renal was more than 100 µM throughout. For the same compound, the TGI in the test with UACC-62 melanoma is more than 100 µM.
As for `CC[C@@]1(O)CC(OC2CC(N3CCOCC3)C(O)C(C)O2)c2c(O)c3c(c(O)c2[C@H]1O)C(=O)c1cccc(O)c1C3=O` (stereo partly drawn), the GI50 with K-562 leukemia was 0.0426 µM; with KM20L2 colon, 0.102 µM; with LOX IMVI melanoma it was 0.0207 µM; with M19-MEL melanoma it was 0.0716 µM; with OVCAR-4 ovarian, 0.199 µM; in the test on OVCAR-5 ovarian it was 0.192 µM. In addition, the figures for the GI50 with SN12C renal and in the test with UACC-62 melanoma were 0.0465 µM and 0.0389 µM, respectively. In addition, the TGI in the test with K-562 leukemia was 6.69 µM and 4.03 µM; in the test with KM20L2 colon, 3.84 µM and 1.86 µM; with LOX IMVI melanoma, 0.886 µM and 0.437 µM; with M19-MEL melanoma, 0.981 µM and 2.14 µM; with MOLT-4 leukemia it was 0.369 µM and 0.128 µM; with OVCAR-4 ovarian, 1.55 µM and 2.88 µM. Moreover, the total growth inhibition concentration (TGI) in the test with OVCAR-5 ovarian was 2.17 µM and 0.821 µM; in the test on SN12C renal, 2.17 µM and 9.19 µM; in the test on SR leukemia it was 25 µM; with UACC-62 melanoma it was 0.428 µM and 0.301 µM.
Turning to `N#CC1(CCCI)CCCC1`, the TGI with K-562 leukemia was more than 100 µM; with KM20L2 colon, more than 100 µM; in the test with LOX IMVI melanoma it was 22.9 µM; in the test on M19-MEL melanoma, 45 µM; in the test with MOLT-4 leukemia, more than 100 µM; in the test on OVCAR-5 ovarian it was 51.6 µM. The TGI was 26.3 µM in the test on SN12C renal, more than 100 µM with SR leukemia and 35.8 µM in the test on UACC-62 melanoma.
Take `C[C@]12CC[C@H]3[C@@H](CC=C4C[C@@H](O)CC[C@@]43C)[C@@H]1C/C(=C\c1ccncc1)[C@@H]2O`: the TGI in the test with K-562 leukemia was more than 100 µM; in the test on LOX IMVI melanoma, 61 µM; in the test on MOLT-4 leukemia, 61.9 µM; with OVCAR-4 ovarian it was 39.5 µM; in the test with OVCAR-5 ovarian it was more than 100 µM; in the test with SN12C renal, 34.8 µM. In addition, the TGI in the test on SR leukemia turned out to be 57.3 µM; in the test with UACC-62 melanoma, 30.7 µM.
Turning to `CC(=O)OC(C(=O)O)C(OC(C)=O)C(OC(C)=O)C(OC(C)=O)C(=O)O` (stereo not drawn), the TGI in the test with K-562 leukemia, in the test on LOX IMVI melanoma, in the test with MOLT-4 leukemia, in the test on OVCAR-5 ovarian, in the test with SN12C renal and in the test on SR leukemia was more than 100 µM throughout. Moreover, the TGI in the test on UACC-62 melanoma is more than 100 µM.
In the case of `N#Cc1c(-c2ccc([N+](=O)[O-])cc2)c2c([nH]c1=O)-c1ccccc1CCC2`, the TGI with K-562 leukemia, with LOX IMVI melanoma, with MOLT-4 leukemia, in the test with OVCAR-4 ovarian, with OVCAR-5 ovarian and with SN12C renal was more than 100 µM throughout. The TGI in the test on SR leukemia and in the test with UACC-62 melanoma was more than 100 µM each time.
For the compound `NC1CCN(c2nc3ccccc3c3c2CCCC3)CC1`, the TGI amounted to 6.58 µM with K-562 leukemia; 14.2 µM in the test with LOX IMVI melanoma; 9.36 µM in the test on MOLT-4 leukemia; 4.63 µM in the test with OVCAR-4 ovarian; 19 µM in the test on OVCAR-5 ovarian; 21.5 µM in the test on SN12C renal. The TGI with UACC-62 melanoma is 3.8 µM.
On to `Cc1c(-c2ccccc2)c(C#N)c2nnn(-c3ccc(Cl)cc3)c(=O)n12`, for which the TGI in the test on K-562 leukemia, with LOX IMVI melanoma, with OVCAR-4 ovarian, in the test on OVCAR-5 ovarian, in the test with SN12C renal and with SR leukemia was more than 100 µM each time. In the test with UACC-62 melanoma, this compound yielded a TGI of more than 100 µM.
Take `CC(C)CNC1=NCC(C)S1` (stereo not drawn): the total growth inhibition concentration (TGI) with K-562 leukemia, in the test with LOX IMVI melanoma, in the test on MOLT-4 leukemia, in the test on OVCAR-5 ovarian, in the test on SR leukemia and in the test with UACC-62 melanoma was more than 100 µM in each case.
As for `CC(C)CCN(CCC(C)C)CC(=O)Nc1ccc(S(=O)(=O)c2ccc(NC(=O)CN(CCC(C)C)CCC(C)C)cc2)cc1`, the GI50 in the test on MOLT-4 leukemia is 2.28 µM; with OVCAR-4 ovarian, 2.56 µM; in the test on OVCAR-5 ovarian, 2.07 µM; with SN12C renal, 3.1 µM; in the test with SR leukemia, 1.72 µM; in the test on UACC-62 melanoma it was 1.55 µM. Besides, the TGI in the test on MOLT-4 leukemia is 7.44 µM; in the test on OVCAR-4 ovarian, 12.7 µM; in the test with OVCAR-5 ovarian it was 5.46 µM; in the test on SN12C renal, 25.2 µM; with SR leukemia, 5.19 µM; with UACC-62 melanoma, 3.52 µM.
With `C=C(CN(C)C)C(=O)c1ccccc1OC`, the TGI in the test with K-562 leukemia was more than 54.1 µM; in the test on KM20L2 colon it was 50.8 µM; in the test with LOX IMVI melanoma, 29.3 µM; in the test with M19-MEL melanoma, 32.4 µM; in the test with MOLT-4 leukemia, more than 20.8 µM; with OVCAR-4 ovarian, 45.9 µM. For the same compound, the TGI in the test with OVCAR-5 ovarian was 38.5 µM; in the test on SN12C renal, 40 µM; in the test with SR leukemia, more than 56 µM; in the test with UACC-62 melanoma, 37 µM.
